Laboratory results published in patent US9308222B2, “Formulas comprising highly soluble elements and vitamins for the prevention and amelioration of osteoporosis” (priority 2008, dated 2016).

What was measured:
[1] = humans; cited from earlier work
[2] = according to the literature; cited from earlier work
[3] = rats; cited from earlier work
[4] = fortified foods, dual isotope techniques; cited from earlier work
[5] = Calcium, magnesium and zinc balance in rats receiving calcium free diet
Excerpt: Male Sprague-Dawley rats (about 6-7 weeks), with an initial weight between 220 g to 250 g, were randomly divided into different treatment groups. All the rats were housed in individual metabolic cages in a temperature-controlled room. Each rat received free access to the normal diet (Table 34) before the experiment. Both normal and calcium free diets (Table 34) were used in this set of studies. De-ionized water was provided ad libitum. All the rats were weighed before treatment.
In each study, there were seven treatment groups. […] Rats participating in the normal diet study received normal diet ad libitum throughout. Rats participating in the group of calcium free diet received the calcium free food ad libitum starting five days before and throughout treatment. In both study groups, animals received one dose a day for five days. […] Values of dosage and dietary intake were measured for the calculation of elemental balance. […] Daily elemental dosages, similar to that of human's, are 53.14 mg/kg for calcium, 0.38 to 55 mg/kg/day for magnesium and 0.017 to 2.5 mg/kg/day for zinc. […] The vehicle for preparing each dose was de-ionized water. The concentration of calcium in all dosage preparations was 15.94 mg/mL. One mL of each preparation was administered by gavage. Body weight, elemental dosage and diet consumption were recorded daily.
Animals were housed individually in a metabolic cage five days before the study. Food consumption was evaluated daily. Urine and feces were collected daily for four days and the content of calcium, magnesium and zinc was determined. On Day 5, each animal received its treatment. […] Immediately after blood collection, the animal was then sacrificed with an overdose of isoflourane. Each blood sample was centrifuged at 1900 rpm at room temperature; plasma was harvested and stored at −20° C. until analysis. Urine was measured daily; it was diluted with de-ionized water, filtered and an aliquot was stored at −20° C. until analysis. Daily fecal output was collected and lyophilized. Each sample was weighed and digested using a mixture of three volume of nitric acid and one volume of perchloric acid. For every gram of dried feces, 10 mL of acid mixture was added. Each sample was digested for three days. The volume of the digested sample was measured and an aliquot of the digest was stored at −20° C. until analysis. The content of calcium, magnesium and zinc in plasma, feces and urine were determined using ICP-OES.
Cumulated calcium balance and % cumulated net calcium balance were calculated using equations (1) and (2), except, the sum of daily intake and excretion was used for calculation. The balance for magnesium and zinc was also calculated using the concept of equations (1) and (2). Cumulated elemental balance and % cumulated net elemental balance were calculated in a similar fashion as described above.
All results were analyzed using two-way ANOVA. […] The data are presented as mean±S.D. and mean±S.E.M. in tables and figures, respectively.

O=C([O-])[O-].[Ca+2] [calcium carbonate]
Amount of calcium absorbed (bioavailability) [1]: 24%

O=C([O-])CC(O)(CC(=O)[O-])C(=O)[O-].O=C([O-])CC(O)(CC(=O)[O-])C(=O)[O-].[Ca+2].[Ca+2].[Ca+2] [calcium citrate]
Bioavailability of calcium [2]: 30%

[O]=[Mg] [magnesium oxide]
Bioavailability of magnesium [3]: 50%

[O]=[Zn] [zinc oxide]
Bioavailability of zinc [4]: approximately 24%

Calcium Acetate
Bioavailability of calcium compared to calcium carbonate ([5]; Tables 36 and 40, dependent on the diet condition): at least 2 fold
Cumulative net percentage of calcium ([5]; calcium free diet, Day 1): −30.6 ± 51.3 ^ %
Cumulative net percentage of calcium ([5]; calcium free diet, Day 2): −9.88 ± 26.5 ^ %
Cumulative net percentage of calcium ([5]; calcium free diet, Day 3): 4.88 ± 24.0 ^ %
Cumulative net percentage of calcium (calcium retention) ([5]; calcium free diet, Day 4): 11.1 ± 20.0 ^ %
